Legend:
[1] = tested on: host plants; experiment: Toxicity of infiltrated antioxidant to the host plant (necrosis); conditions: for toxicity to the plant: 100 μM
Experimental: Transient infiltration was done according Medrano et al (2009), with some modifications as follows. Briefly, an A. tumefaciens inoculum integrated with the binary vector pBIB-Kan encoding IL-12 was cultured under standard conditions for 2 days at 28° C. The bacterial cultures were centrifuged and resuspended to a final OD600 of 0.2-0.8, in 400 mL of a induction medium (“IM”; 0.5× Murashige and Skoog basal medium salts, 1× MS vitamins, 5% sucrose, 1× benzylaminopurine, 200 μM acetosyringone, pH 5.5). The cultures were incubated in 1M for ≥3 h at 28° C. Vacuum infiltration of 4-5-week-old N. benthamiana was accomplished by inverting a plant into a 400 mL glass beaker containing IM, ensuring that all leaves of the plant are immersed in the media. The beaker was placed in a vacuum desiccator unit (240-mm inner diameter) and using a vacuum pump, maximum pressure (˜25 in. Hg) was applied for 2 min and then quickly released. Additional plants were subject to infiltration using the same construct/antioxidant culture, or replaced with a new beaker of IM containing another construct/antioxidant culture. […] Infiltrated plants were returned to the environmental chamber at conditions established previously during plant growth. In the case of both model transgene constructs, leaves were harvested from plants at 48 h post-infiltration and stored at −80° C. for subsequent analyses.
(§1) Vitamin E and vitamin K were solubilized in chloroform and kept on amber tube on ice. The final concentration range of vitamins E and K tested were 5-100 μM.

[2] = tested on: N. benthamiana plants; experiment: Transient hIL-12 expression after vacuum co-infiltration, Western blot and densitometry; type: in vivo; conditions: for increase in hIL-12 expression (semi-quantitative densitometry): 20 mM AsA in induction medium, vs construct alone
Experimental: Transient infiltration was done according Medrano et al (2009), with some modifications as follows. Briefly, an A. tumefaciens inoculum integrated with the binary vector pBIB-Kan encoding IL-12 was cultured under standard conditions for 2 days at 28° C. The bacterial cultures were centrifuged and resuspended to a final OD600 of 0.2-0.8, in 400 mL of a induction medium (“IM”; 0.5× Murashige and Skoog basal medium salts, 1× MS vitamins, 5% sucrose, 1× benzylaminopurine, 200 μM acetosyringone, pH 5.5). The cultures were incubated in 1M for ≥3 h at 28° C. Vacuum infiltration of 4-5-week-old N. benthamiana was accomplished by inverting a plant into a 400 mL glass beaker containing IM, ensuring that all leaves of the plant are immersed in the media. The beaker was placed in a vacuum desiccator unit (240-mm inner diameter) and using a vacuum pump, maximum pressure (˜25 in. Hg) was applied for 2 min and then quickly released. Additional plants were subject to infiltration using the same construct/antioxidant culture, or replaced with a new beaker of IM containing another construct/antioxidant culture. A single IM culture was used for infiltrating typically 3 but up to 10 independent plants with no adverse effect on the amount of transgene product expressed and presence of exogenously introduced antioxidant in planta respectively. Infiltrated plants were returned to the environmental chamber at conditions established previously during plant growth. […]
as §1
(§2) Samples were resolved by SDS-PAGE (run under denaturing or reducing conditions) and Western immunoblotting analysis performed. For hIL-12 detection, primary antibody anti-human IL-12 (1:1000 v/v; R&D Systems) and secondary antibody anti-goat IgG-alkaline phosphatase conjugated (1:10,000 v/v; BIORAD®) was used. For chIL-12 detection, anti-6×His (C-term)-alkaline phosphatase conjugated (1:2000 v/v; Invitrogen) was used. Detection on immunoblots was carried out using the CDP-Star chemiluminescent substrate for alkaline phosphatase (Roche, Indianapolis, Ind.) and NitroBlock. Enhancer II (Tropix Inc., Bedford, Mass.) in accordance with manufacturers' procedures. Densitometry using the BIORAD® VERSDOC4000™ and QUANT-1® software package was employed and relative protein expression was determined in order to evaluate the effect of antioxidants on plant-made protein expression.

[3] = tested on: N. benthamiana plants; experiment: Transient chIL-12 expression after vacuum co-infiltration, anti-his Western blot and densitometry; type: in vivo
Experimental: Transient infiltration was done according Medrano et al (2009), with some modifications as follows. Briefly, an A. tumefaciens inoculum integrated with the binary vector pBIB-Kan encoding IL-12 was cultured under standard conditions for 2 days at 28° C. The bacterial cultures were centrifuged and resuspended to a final OD600 of 0.2-0.8, in 400 mL of a induction medium (“IM”; 0.5× Murashige and Skoog basal medium salts, 1× MS vitamins, 5% sucrose, 1× benzylaminopurine, 200 μM acetosyringone, pH 5.5). The cultures were incubated in 1M for ≥3 h at 28° C. Vacuum infiltration of 4-5-week-old N. benthamiana was accomplished by inverting a plant into a 400 mL glass beaker containing IM, ensuring that all leaves of the plant are immersed in the media. The beaker was placed in a vacuum desiccator unit (240-mm inner diameter) and using a vacuum pump, maximum pressure (˜25 in. Hg) was applied for 2 min and then quickly released. Additional plants were subject to infiltration using the same construct/antioxidant culture, or replaced with a new beaker of IM containing another construct/antioxidant culture. A single IM culture was used for infiltrating typically 3 but up to 10 independent plants with no adverse effect on the amount of transgene product expressed and presence of exogenously introduced antioxidant in planta respectively. Infiltrated plants were returned to the environmental chamber at conditions established previously during plant growth. In the case of both model transgene constructs, leaves were harvested from plants at 48 h post-infiltration and stored at −80° C. for subsequent analyses.
Vitamin E and vitamin K were solubilized in chloroform and kept on amber tube on ice. […]
(§3) Samples were resolved by SDS-PAGE (run under denaturing or reducing conditions) and Western immunoblotting analysis performed. […] Densitometry using the BIORAD® VERSDOC4000™ and QUANT-1® software package was employed and relative protein expression was determined in order to evaluate the effect of antioxidants on plant-made protein expression.

[4] = tested on: plant transient bioproduction system; experiment: Transient expression of a 94 kDa human glycoprotein, Western blot; type: in vivo; conditions: 20 mM co-infiltrated AsA, 72 hrs post-infiltration
Experimental: Transient infiltration was done according Medrano et al (2009), with some modifications as follows. Briefly, an A. tumefaciens inoculum integrated with the binary vector pBIB-Kan encoding IL-12 was cultured under standard conditions for 2 days at 28° C. The bacterial cultures were centrifuged and resuspended to a final OD600 of 0.2-0.8, in 400 mL of a induction medium (“IM”; 0.5× Murashige and Skoog basal medium salts, 1× MS vitamins, 5% sucrose, 1× benzylaminopurine, 200 μM acetosyringone, pH 5.5). The cultures were incubated in 1M for ≥3 h at 28° C. Vacuum infiltration of 4-5-week-old N. benthamiana was accomplished by inverting a plant into a 400 mL glass beaker containing IM, ensuring that all leaves of the plant are immersed in the media. The beaker was placed in a vacuum desiccator unit (240-mm inner diameter) and using a vacuum pump, maximum pressure (˜25 in. Hg) was applied for 2 min and then quickly released. […]
as §3

[5] = tested on: transient system host plants; experiment: Foliar ascorbate content of infiltrated host plants, ascorbate oxidase assay; type: in vivo, N. benthamiana; conditions: increasing infiltrated AsA
Experimental: Leaf tissue ground in the presence of liquid nitrogen with mortar/pestle was extracted. The foliar vitamin C content was determined by the ascorbate oxidase assay as previously described (Lorence et al., 2004). Briefly, tissue samples were harvested and immediately frozen in liquid nitrogen and stored at -80° C. till analysis. Samples were ground in 6% (w/v) meta-phosphoric acid, and centrifuged at 15,000×g for 10 min. Reduced vitamin C (a.k.a. ascorbate) was determined by measuring the decline in […] (extinction coefficient of 14.3 cm^-1 mM^-1) after addition of 1 unit of ascorbate oxidase (Sigma) to 1 mL of the reaction mix including tissue extract and 100 mM potassium phosphate (pH 6.9). […] Foliar ascorbate content was determined by a microplate reader-based method described herein. […] Reduced ascorbate was determined in a 300 μL reaction in triplicates by adding 275 μL of 0.1M of potassium phosphate buffer pH 6.9 into a 96-well plate (UV Flat Bottom Microplate, Thermo Scientific) containing 15 μL of sample supernatant. The mix was measured at […] and recorded. The decline in […] was measured after addition of 10 μL (1 U) of ascorbate oxidase (final concentration 0.0033 units of ascorbate oxidase, Sigma). […] The mix was measured at […] and recorded. […] […] was measure using a plate reader (model Power Wave XS, software KC Junior, Biotek).

[6] = tested on: H2O2 in leaves; experiment: In situ H2O2 detection in leaves, DAB staining; type: in vivo, N. benthamiana
Text: Staining for H2O2 in leaves which correlates with the presence of reactive oxygen species (ROS) is detected by an endogenous peroxidase-dependent staining procedure, using 3,3-diaminobenzidine (DAB). This assay provides a comparative in situ measure of the ROS levels in planta (Thordal-Christensen et al., 1997).

[7] = tested on: N. benthamiana leaves; experiment: Recovery of purified hIL-12, heterodimer-specific hIL-12 ELISA; type: in vivo; conditions: 20 mM exogenously added AsA vs no antioxidant
Experimental: The amount of hIL-12 expressed in N. benthamiana leaves in the presence or absence of modified antioxidants levels during bioproduction was quantitated using a commercially available heterodimer-specific hIL-12 enzyme-linked immunoabsorbant assay (ELISA) (R&D Systems). To assay hIL-12, leaves were ground in PBS buffer (137 mM NaCl, 2.7 mM KCl, 10.1 mM Na2HPO4, and […] KH2PO4 pH 7.0) at a 1:2 (w/v) ratio and supernatant extracts were analyzed by the ELISA. For hIL-12 detection, the ELISA used monoclonal antibodies specific for hIL-12 p70 for capture (0.2 μg/mL) and biotinylated anti-human IL-12 antibody for detection (4 μg/mL). Streptavidin-HRP (1:200 v/v) was used for chemiluminescence and 3,3′,5,5′-tetramethylbenzidine (TMB; KPL) as a substrate for detection. Densitometry using the BIORAD® VERSDOC4000™ and QUANT-1® software package was employed and was established relative protein expression in order to evaluate the impact of antioxidants on its expression in plants.

[8] = tested on: Stable N. tabacum lines; experiment: hIL-12 expression in stable transgenic lines after vacuum infiltration, Western blot; type: in vivo; conditions: AsA in IM media, leaves 24 and 48 h
Experimental: as §2
This finding further supports the concept that increasing the antioxidant capacity of the host plant enhances the overall biosynthesis of the plant in serving as a factory for recombinant protein production.

For vitamin K, the “toxicity to the plant” value [1] was “detrimental”.

For `O=C1O[C@H]([C@@H](O)CO)C(O)=C1O` [AsA, ascorbic acid], the “hIL-12 protein expression levels, dose response” value ([2]; 0, 20, 40, 60 mM AsA) was “dose dependent increase”, the “increase in hIL-12 expression (semi-quantitative densitometry)” value [2] was 25-30% and the “increase in hIL-12 expression (semi-quantitative densitometry)” value ([2]; listed as vitamin C) was ~25%. The “monomeric, single-chain hIL12 on Western blot” value ([2]; 20 mM co-infiltrated AsA vs construct alone) was “significant increase”, the “oligomer formation of hIL-12” value ([2]; 48 and 72 h post-infiltration, vs 0 mM AsA) was “abrogates oligomer formation of hIL-12” and the “time hIL-12 is sustained in planta” value ([2]; co-infiltrated AsA vs 0 mM AsA) was “up to 72 h”. The “effective dose range for recombinant protein production” value ([2]; plant transient infiltration system) was 20 to 60 mM, the “increase in chIL-12 protein expression” value ([3]; 20 mM AsA, 48 h post-infiltration, on average) was ~3 fold and the “stable accumulation of 94 kDa human glycoprotein” value [4] was “enhanced”. For the same compound, the “in planta foliar AsA levels” value [5] was “dose-dependent increase”, the “H2O2 staining (DAB)” value ([6]; 80 mM AsA) was “some staining” and the “H2O2 staining (DAB)” value ([6]; 100 mM AsA) was “clearly detectable”. The “H2O2 staining (DAB)” value ([6]; 20 to 60 mM AsA) was “minimal”, the “effect on leaves/cells of host plants” value ([1]; 80 mM) was “began to show signs of necrosis” and the “effect on leaves/cells of host plants” value ([1]; 80 mM, listed as vitamin C) was “detrimental”. For the same compound, the “effect on leaves/cells of host plants” value ([1]; 100 mM) was “significant necrotic lesions”, the “effect on leaves/cells of host plants” value ([1]; 100 mM, listed as vitamin C) was “detrimental” and the “more purified hIL12 product recovered (ELISA)” value [7] was 20-25%. For the same compound, the “hIL-12 protein levels in stable transgenic plants” value [8] was “increasing the overall expression of hIL-12 protein levels”.

For vitamin E, the “transient hIL-12 expression” value ([2]; vitamin E alone) was “no effect on expression”, the “chIL12 protein production at higher concentrations” value ([3]; 50-100 μM) was “reduced improvement in protein production” and the “concentration with greatest impact in transient chIL12 protein expression” value ([3]; dose-response 5-100 mM) was 20 µM. The “toxicity to the plant” value [1] was “appeared to be toxic”.
